Measurements as given in the supplement of paper PMC10307832.

Legend:
Assay in all cases: relative viability (nuclei count vs DMSO), 5 days (fraction); higher = more cells survive
Dovitinib = compound: CN1CCN(c2ccc3nc(-c4c(N)c5c(F)cccc5[nH]c4=O)[nH]c3c2)CC1 [Dovitinib]
Outline: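 Five library-drug doses, separated by factors of √10, were pinned into 1536-well plates holding lung cancer cell lines after an overnight stay at 37 °C. Cells were fixed, permeabilised and Hoechst-stained in one step after 5 days without medium change, then imaged at 4×. Viability compares treated-well with vehicle-well nuclei, counted in MetaXpress, as a median across plates. Passing plates had control CV below 25% and at least one doubling.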

Dovitinib + Olaparib = compound: CN1CCN(c2ccc3nc(-c4c(N)c5c(F)cccc5[nH]c4=O)[nH]c3c2)CC1 [Dovitinib] + O=C(c1cc(Cc2n[nH]c(=O)c3ccccc23)ccc1F)N1CCN(C(=O)C2CC2)CC1 [Olaparib] (partner 8 µM)
Outline: (§1)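 Relative viability divides the nuclei count in treated wells by that in vehicle wells. Lung cancer cell lines were seeded in 1536-well plates, dosed by pin tool the next day, and fixed and stained after 5 days in one step with final 0.05% Triton X-100, 1% formaldehyde and 1 ug/ml Hoechst. Dosing was a single drug or a fixed anchor-drug dose plus five library-drug doses (not always all listed) in √10 steps, and values are medians of duplicate plates imaged at 4×.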

Dovitinib + Phenformin = compound: CN1CCN(c2ccc3nc(-c4c(N)c5c(F)cccc5[nH]c4=O)[nH]c3c2)CC1 [Dovitinib] + N=C(N)NC(=N)NCCc1ccccc1 [Phenformin] (partner 250 µM)
Outline: as §1

Dovitinib + Trametinib = compound: CN1CCN(c2ccc3nc(-c4c(N)c5c(F)cccc5[nH]c4=O)[nH]c3c2)CC1 [Dovitinib] + CC(=O)Nc1cccc(-n2c(=O)n(C3CC3)c(=O)c3c(Nc4ccc(I)cc4F)n(C)c(=O)c(C)c32)c1 [Trametinib] (partner 0.02 µM)
Outline: as §1

Cell Line	relative viability (Dovitinib; 0.02 µM)	relative viability (Dovitinib; 0.06325 µM)	relative viability (Dovitinib; 0.2 µM)	relative viability (Dovitinib; 0.6325 µM)	relative viability (Dovitinib; 2 µM)	relative viability (Dovitinib + Olaparib; first compound 0.02 µM)	relative viability (Dovitinib + Olaparib; first compound 0.06325 µM)	relative viability (Dovitinib + Olaparib; first compound 0.2 µM)	relative viability (Dovitinib + Olaparib; first compound 0.6325 µM)	relative viability (Dovitinib + Olaparib; first compound 2 µM)	relative viability (Dovitinib + Phenformin; first compound 0.02 µM)	relative viability (Dovitinib + Phenformin; first compound 0.06325 µM)	relative viability (Dovitinib + Phenformin; first compound 0.2 µM)	relative viability (Dovitinib + Phenformin; first compound 0.6325 µM)	relative viability (Dovitinib + Phenformin; first compound 2 µM)	relative viability (Dovitinib + Trametinib; first compound 0.02 µM)	relative viability (Dovitinib + Trametinib; first compound 0.06325 µM)	relative viability (Dovitinib + Trametinib; first compound 0.2 µM)	relative viability (Dovitinib + Trametinib; first compound 0.6325 µM)	relative viability (Dovitinib + Trametinib; first compound 2 µM)
NCI-H2126	1.01	0.966	1.01	0.983	1.05	0.871	0.934	0.92	0.936	0.878	0.524	0.504	0.582	0.536	0.581	0.576	0.56	0.569	0.598	0.522
HCC-44	0.979	0.98	0.991	1	1.03	0.976	0.977	0.949	0.996	0.92	0.294	0.138	0.174	0.229	0.197	1.06	1.07	1.1	1.07	1.02
NCI-H460	0.982	1.02	0.993	0.985	0.964	0.372	0.488	0.403	0.426	0.411	0.488	0.563	0.517	0.49	0.498	0.161	0.146	0.206	0.224	0.128
SK-LU-1	0.991	1.09	1.08	1.08	1.11	0.418	0.487	0.446	0.501	0.452	0.515	0.525	0.594	0.595	0.528	0.429	0.516	0.491	0.551	0.52
NCI-H322M	0.885	0.926	0.918	0.977	0.97	0.727	0.697	0.74	0.858	0.881	0.685	0.737	0.811	0.751	0.815	0.557	0.506	0.507	0.496	0.543
EKVX	1.01	0.983	1.05	1.04	1.01	0.897	0.723	0.862	0.831	0.904	0.217	0.225	0.232	0.253	0.236	0.395	0.32	0.332	0.351	0.327
NCI-H1734	0.928	0.974	0.934	0.963	0.984	0.66	0.648	0.547	0.605	0.678	0.418	0.408	0.38	0.396	0.372	0.652	0.68	0.762	0.651	0.642
SW 900	1.11	0.853	1.11	1.04	0.952	0.796	0.809	0.847	0.808	0.851	0.83	0.834	0.478	0.618	0.554	0.811	0.763	1.06	0.771	1.08
NCI-H520	1.01	1.02	0.944	0.976	0.955	0.358	0.315	0.332	0.33	0.389	0.558	0.572	0.625	0.514	0.545	0.599	0.619	0.812	0.586	0.638
EPLC-272H	0.942	0.955	0.976	0.913	0.928	0.815	0.893	0.793	0.681	0.57	0.323	0.309	0.274	0.384	0.317	0.306	0.269	0.298	0.269	0.303
UMC-11	0.959	0.941	0.992	0.981	0.939	0.334	0.352	0.383	0.387	0.435	0.315	0.327	0.347	0.323	0.344	0.742	0.69	0.793	0.669	0.767
NCI-H1792	0.898	0.818	0.894	1.04	0.907	0.582	0.41	0.404	0.614	0.548	0.384	0.264	0.482	0.357	0.322	0.394	0.457	0.416	0.46	0.36
NCI-H1993	1.21	0.863	1	0.988	1.07	1.07	0.961	1.08	0.912	0.982	0.483	0.516	0.496	0.499	0.505	0.517	0.481	0.489	0.58	0.502
NCI-H596	0.965	0.957	1	1.12	0.932	0.672	0.688	0.65	0.687	0.627	0.711	0.864	0.785	0.815	0.804	0.701	0.844	0.764	0.694	0.777
NCI-H1793	1.07	0.977	1.02	1.09	1.01	0.901	0.928	0.786	0.873	1.02	0.41	0.326	0.368	0.283	0.515	0.458	0.36	0.388	0.445	0.445
NCI-H1395	0.99	0.849	0.959	0.827	1.15	0.533	0.431	0.478	0.505	0.479	0.455	0.415	0.488	0.445	0.462	1.04	0.984	1.07	1.02	1.06

Cell Line	relative viability (Dovitinib; 0.02 µM)	relative viability (Dovitinib; 0.06325 µM)	relative viability (Dovitinib; 0.2 µM)	relative viability (Dovitinib; 0.6325 µM)	relative viability (Dovitinib; 2 µM)	relative viability (Dovitinib + Olaparib; first compound 0.02 µM)	relative viability (Dovitinib + Olaparib; first compound 0.06325 µM)	relative viability (Dovitinib + Olaparib; first compound 0.2 µM)	relative viability (Dovitinib + Olaparib; first compound 0.6325 µM)	relative viability (Dovitinib + Olaparib; first compound 2 µM)	relative viability (Dovitinib + Phenformin; first compound 0.02 µM)	relative viability (Dovitinib + Phenformin; first compound 0.06325 µM)	relative viability (Dovitinib + Phenformin; first compound 0.2 µM)	relative viability (Dovitinib + Phenformin; first compound 0.6325 µM)	relative viability (Dovitinib + Phenformin; first compound 2 µM)	relative viability (Dovitinib + Trametinib; first compound 0.02 µM)	relative viability (Dovitinib + Trametinib; first compound 0.06325 µM)	relative viability (Dovitinib + Trametinib; first compound 0.2 µM)	relative viability (Dovitinib + Trametinib; first compound 0.6325 µM)	relative viability (Dovitinib + Trametinib; first compound 2 µM)
HCC-827	1.05	1.01	1.05	1.1	1.03	0.626	0.697	0.646	0.68	0.678	0.395	0.402	0.426	0.41	0.405	0.553	0.553	0.565	0.603	0.57
ChaGo-K-1	0.961	1.06	0.97	1.02	0.995	0.398	0.461	0.397	0.395	0.366	0.469	0.534	0.499	0.476	0.51	0.868	0.875	0.936	0.885	0.778
NCI-H2228	0.832	1.17	1.16	0.966	0.962	0.689	0.592	0.866	0.768	0.573	0.288	0.419	0.285	0.432	0.285	0.652	0.467	0.454	0.507	0.488
NCI-H2170	0.868	1.01	1.04	0.982	0.946	0.617	0.607	0.606	0.605	0.542	0.357	0.43	0.448	0.338	0.452	0.928	0.92	1.04	0.866	0.945
EMC-BAC-2	1.06	0.952	0.994	1.01	1.02	0.569	0.513	0.5	0.486	0.504	0.527	0.482	0.538	0.471	0.542	1.2	0.811	0.986	0.873	0.945
NCI-H522	1	1.09	1.22	1.03	0.924	0.729	0.695	0.728	0.634	0.66	0.637	0.686	0.583	0.625	0.769	0.731	0.656	0.829	0.687	0.933
NCI-H23	1.01	1.03	1.07	1.02	0.952	0.271	0.314	0.333	0.298	0.338	0.888	0.843	0.746	0.737	0.754	0.391	0.446	0.376	0.4	0.378
RERF-LC-KJ	0.964	1.01	1.07	0.95	0.954	0.932	0.892	0.939	0.982	0.896	0.412	0.417	0.447	0.42	0.384	0.928	0.837	1.01	0.869	0.864
NCI-H358	0.9	0.995	0.918	0.989	0.907	0.621	0.658	0.619	0.543	0.606	0.291	0.357	0.408	0.317	0.319	0.156	0.144	0.154	0.19	0.143
LC-2-ad	0.977	0.966	0.965	0.983	0.98	0.691	0.666	0.734	0.775	0.741	0.644	0.543	0.621	0.517	0.606	0.92	0.903	0.873	0.927	0.815
HCC-15	1.05	0.961	1.07	1.03	1	0.687	0.703	0.71	0.696	0.726	0.482	0.475	0.502	0.436	0.472	0.434	0.342	0.369	0.341	0.377
NCI-H2405	0.96	0.969	1.06	1.03	1.16	0.858	0.849	0.944	0.815	0.903	0.389	0.345	0.448	0.331	0.446	0.757	0.56	0.692	0.597	0.738
LXF-289	0.938	1.01	0.999	1.02	0.979	0.974	1.08	1.07	1.1	0.976	0.514	0.532	0.551	0.513	0.537	0.619	0.716	0.695	0.612	0.662
CAL-12T	1.07	1.02	1.02	0.99	1.1	0.69	0.434	0.733	0.61	0.713	0.585	0.624	0.556	0.616	0.664	0.491	0.34	0.413	0.36	0.371
COR-L23	0.967	1.1	0.987	1.06	1.04	0.296	0.383	0.379	0.353	0.342	0.416	0.467	0.478	0.455	0.507	0.568	0.641	0.601	0.532	0.628
